Experimental data as given in PubChem BioAssay (NCI).
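Protocol summary: plate cells (96-well), add compound at 5 concentrations, incubate 48 h, interpolate endpoints linearly. The concentration for 50% growth inhibition is given as GI50. At the TGI there is no net growth.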

Key:
Test in all cases: NCI anticancer screen, dose series, 48 h
786-0 renal = tested on: 786-0 renal
A498 renal = tested on: A498 renal
A549 NSCLC = tested on: A549 NSCLC
ACHN renal = tested on: ACHN renal
BT-549 breast = tested on: BT-549 breast
CAKI-1 renal = tested on: CAKI-1 renal
CCRF-CEM leukemia = tested on: CCRF-CEM leukemia
COLO 205 colon = tested on: COLO 205 colon
DU-145 prostate = tested on: DU-145 prostate
EKVX NSCLC = tested on: EKVX NSCLC
HCC-2998 colon = tested on: HCC-2998 colon
HCT-116 colon = tested on: HCT-116 colon
HCT-15 colon = tested on: HCT-15 colon
HL-60(TB) leukemia = tested on: HL-60(TB) leukemia
HOP-62 NSCLC = tested on: HOP-62 NSCLC
HOP-92 NSCLC = tested on: HOP-92 NSCLC
HS 578T breast = tested on: HS 578T breast
HT29 colon = tested on: HT29 colon
IGROV1 ovarian = tested on: IGROV1 ovarian
K-562 leukemia = tested on: K-562 leukemia
KM12 colon = tested on: KM12 colon
LOX IMVI melanoma = tested on: LOX IMVI melanoma
M14 melanoma = tested on: M14 melanoma
MALME-3M melanoma = tested on: MALME-3M melanoma
MCF7 breast = tested on: MCF7 breast
MDA-MB-231 breast = tested on: MDA-MB-231 breast
MDA-MB-435 = tested on: MDA-MB-435
MOLT-4 leukemia = tested on: MOLT-4 leukemia
NCI-H226 lung = tested on: NCI-H226 lung
NCI-H23 lung = tested on: NCI-H23 lung
NCI-H460 lung = tested on: NCI-H460 lung
NCI-H522 lung = tested on: NCI-H522 lung
NCI/ADR-RES ovarian = tested on: NCI/ADR-RES ovarian
OVCAR-3 ovarian = tested on: OVCAR-3 ovarian
OVCAR-4 ovarian = tested on: OVCAR-4 ovarian
OVCAR-5 ovarian = tested on: OVCAR-5 ovarian
OVCAR-8 ovarian = tested on: OVCAR-8 ovarian
PC-3 prostate = tested on: PC-3 prostate
RPMI-8226 leukemia = tested on: RPMI-8226 leukemia
SF-268 CNS = tested on: SF-268 CNS
SF-295 CNS = tested on: SF-295 CNS
SF-539 CNS = tested on: SF-539 CNS
SK-MEL-2 melanoma = tested on: SK-MEL-2 melanoma
SK-MEL-28 melanoma = tested on: SK-MEL-28 melanoma
SK-MEL-5 melanoma = tested on: SK-MEL-5 melanoma
SK-OV-3 ovarian = tested on: SK-OV-3 ovarian
SN12C renal = tested on: SN12C renal
SNB-19 CNS = tested on: SNB-19 CNS
SNB-75 CNS = tested on: SNB-75 CNS
SR leukemia = tested on: SR leukemia
SW-620 colon = tested on: SW-620 colon
T-47D breast = tested on: T-47D breast
TK-10 renal = tested on: TK-10 renal
U251 CNS = tested on: U251 CNS
UACC-257 melanoma = tested on: UACC-257 melanoma
UACC-62 melanoma = tested on: UACC-62 melanoma
UO-31 renal = tested on: UO-31 renal

**Q.** What does the source list for `CCN1C(=O)N(CC)C2C1NN=c1s/c(=C\c3cccc(F)c3)c(=O)n12` (stereo not drawn)?
**A.** GI50 (786-0 renal): 0.657 µM; TGI (786-0 renal): > 100 µM; GI50 (A498 renal): < 0.0184 µM; TGI (A498 renal): 0.184 µM; GI50 (A549 NSCLC): 0.282 µM; TGI (A549 NSCLC): > 100 µM; GI50 (ACHN renal): 0.196 µM; TGI (ACHN renal): > 100 µM; GI50 (BT-549 breast): 0.209 µM; GI50 (CAKI-1 renal): 0.0711 µM; TGI (CAKI-1 renal): > 100 µM; GI50 (CCRF-CEM leukemia): 0.181 µM; TGI (CCRF-CEM leukemia): > 100 µM; GI50 (COLO 205 colon): 0.243 µM; TGI (COLO 205 colon): 4.92 µM; GI50 (DU-145 prostate): 0.389 µM; TGI (DU-145 prostate): > 100 µM; GI50 (EKVX NSCLC): 0.657 µM; TGI (EKVX NSCLC): > 100 µM; GI50 (HCC-2998 colon): 0.223 µM; TGI (HCC-2998 colon): > 65.6 µM; GI50 (HCT-116 colon): 0.131 µM; TGI (HCT-116 colon): > 100 µM; GI50 (HCT-15 colon): 0.0549 µM; TGI (HCT-15 colon): > 100 µM; GI50 (HL-60(TB) leukemia): 0.0582 µM; TGI (HL-60(TB) leukemia): 0.46 µM; GI50 (HOP-62 NSCLC): 0.598 µM; TGI (HOP-62 NSCLC): > 100 µM; GI50 (HOP-92 NSCLC): 1.44 µM; TGI (HOP-92 NSCLC): > 79.8 µM; GI50 (HS 578T breast): 0.0899 µM; TGI (HS 578T breast): > 100 µM; GI50 (HT29 colon): 0.0859 µM; TGI (HT29 colon): > 100 µM; GI50 (IGROV1 ovarian): 0.233 µM; TGI (IGROV1 ovarian): > 100 µM; GI50 (K-562 leukemia): 0.041 µM; TGI (K-562 leukemia): > 100 µM; GI50 (KM12 colon): 0.0856 µM; TGI (KM12 colon): > 100 µM; GI50 (LOX IMVI melanoma): 0.11 µM; TGI (LOX IMVI melanoma): > 100 µM; GI50 (M14 melanoma): 0.0727 µM; TGI (M14 melanoma): > 100 µM; GI50 (MALME-3M melanoma): 0.429 µM; TGI (MALME-3M melanoma): > 100 µM; GI50 (MCF7 breast): 0.0392 µM; TGI (MCF7 breast): > 100 µM; GI50 (MDA-MB-231 breast): 0.405 µM; TGI (MDA-MB-231 breast): > 100 µM; GI50 (MDA-MB-435): 0.0271 µM; TGI (MDA-MB-435): 0.0833 µM; GI50 (MOLT-4 leukemia): 0.327 µM; TGI (MOLT-4 leukemia): > 100 µM; GI50 (NCI-H226 lung): 0.24 µM; TGI (NCI-H226 lung): > 100 µM; GI50 (NCI-H23 lung): 0.522 µM; TGI (NCI-H23 lung): > 100 µM; GI50 (NCI-H460 lung): 0.217 µM; TGI (NCI-H460 lung): 15.1 µM; GI50 (NCI-H522 lung): 0.228 µM; TGI (NCI-H522 lung): 33.2 µM; GI50 (NCI/ADR-RES ovarian): 0.059 µM; TGI (NCI/ADR-RES ovarian): > 100 µM; GI50 (OVCAR-3 ovarian): 0.17 µM; TGI (OVCAR-3 ovarian): > 100 µM; GI50 (OVCAR-4 ovarian): 5.37 µM; TGI (OVCAR-4 ovarian): > 100 µM; GI50 (OVCAR-5 ovarian): 0.556 µM; TGI (OVCAR-5 ovarian): > 100 µM; GI50 (OVCAR-8 ovarian): 0.345 µM; TGI (OVCAR-8 ovarian): > 100 µM; GI50 (PC-3 prostate): 0.185 µM; TGI (PC-3 prostate): > 100 µM; GI50 (RPMI-8226 leukemia): 0.119 µM; TGI (RPMI-8226 leukemia): 7.78 µM; GI50 (SF-268 CNS): 2.61 µM; TGI (SF-268 CNS): > 100 µM; GI50 (SF-295 CNS): 0.224 µM; TGI (SF-295 CNS): > 100 µM; GI50 (SF-539 CNS): 0.0804 µM; TGI (SF-539 CNS): 1.05 µM; GI50 (SK-MEL-2 melanoma): 1.69 µM; TGI (SK-MEL-2 melanoma): > 100 µM; GI50 (SK-MEL-28 melanoma): 13.1 µM; TGI (SK-MEL-28 melanoma): > 100 µM; GI50 (SK-MEL-5 melanoma): 0.131 µM; TGI (SK-MEL-5 melanoma): 2.33 µM; GI50 (SK-OV-3 ovarian): 2.59 µM; TGI (SK-OV-3 ovarian): > 100 µM; GI50 (SN12C renal): 0.38 µM; TGI (SN12C renal): > 100 µM; GI50 (SNB-19 CNS): 0.263 µM; TGI (SNB-19 CNS): > 100 µM; GI50 (SNB-75 CNS): 0.0745 µM; TGI (SNB-75 CNS): > 100 µM; GI50 (SR leukemia): 0.044 µM; TGI (SR leukemia): > 100 µM; GI50 (SW-620 colon): 0.0845 µM; TGI (SW-620 colon): > 100 µM; GI50 (T-47D breast): 17.4 µM; TGI (T-47D breast): > 100 µM; GI50 (TK-10 renal): 27.2 µM; TGI (TK-10 renal): > 100 µM; GI50 (U251 CNS): 0.21 µM; TGI (U251 CNS): > 100 µM; GI50 (UACC-257 melanoma): 30 µM; TGI (UACC-257 melanoma): > 100 µM; GI50 (UACC-62 melanoma): 0.0539 µM; TGI (UACC-62 melanoma): > 100 µM; GI50 (UO-31 renal): 0.96 µM; TGI (UO-31 renal): > 100 µM
